In publication PMC8795197, “Safety and activity of WX-0593 (Iruplinalkib) in patients with ALK- or ROS1-rearranged advanced non-small cell lung cancer: a phase 1 dose-escalation and dose-expansion trial” (Signal Transduction and Targeted Therapy, 2022):
“Also recorded” adds a separate entry of the source.

Columns and labels:
[1] = molecular target: CYP3A4 (Homo sapiens, UniProt P08684); assay: Metabolic enzyme phenotyping (chemical inhibitors, recombinant human P450); format: in vitro ADME
Source text: Other isoenzymes (CYP1A2, CYP2B6, CYP2C8, CYP2C9, CYP2C19 and CYP2D6) played a secondary or insignificant role in the formation of M1, M2, and M5.

[2] = molecular target: Eta (Homo sapiens, UniProt P25101); assay: GPCR antagonist screening assay; format: cell-based
[3] = test system: LU-01-0319R NSCLC PDX; assay: PDX model resistant to crizotinib; format: in vivo
[4] = Excretion and mass balance after [14C]WX-0593; details: 0-168 hours

Chain of CYP3A4 (P08684 whole entry): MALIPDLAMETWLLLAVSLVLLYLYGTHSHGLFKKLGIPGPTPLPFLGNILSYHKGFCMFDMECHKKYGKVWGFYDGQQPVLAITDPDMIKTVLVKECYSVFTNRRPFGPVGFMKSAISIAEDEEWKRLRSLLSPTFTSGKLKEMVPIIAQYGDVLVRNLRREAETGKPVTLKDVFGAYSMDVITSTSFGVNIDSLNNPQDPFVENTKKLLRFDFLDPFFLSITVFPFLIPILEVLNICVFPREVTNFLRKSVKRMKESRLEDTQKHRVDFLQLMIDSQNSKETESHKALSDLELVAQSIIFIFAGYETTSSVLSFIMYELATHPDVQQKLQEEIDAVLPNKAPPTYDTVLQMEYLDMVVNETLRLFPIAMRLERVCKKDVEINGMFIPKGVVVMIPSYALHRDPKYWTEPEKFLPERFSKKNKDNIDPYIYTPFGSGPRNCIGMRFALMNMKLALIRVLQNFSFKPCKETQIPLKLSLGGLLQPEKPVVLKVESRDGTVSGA
Chain of Eta (P25101 21-427): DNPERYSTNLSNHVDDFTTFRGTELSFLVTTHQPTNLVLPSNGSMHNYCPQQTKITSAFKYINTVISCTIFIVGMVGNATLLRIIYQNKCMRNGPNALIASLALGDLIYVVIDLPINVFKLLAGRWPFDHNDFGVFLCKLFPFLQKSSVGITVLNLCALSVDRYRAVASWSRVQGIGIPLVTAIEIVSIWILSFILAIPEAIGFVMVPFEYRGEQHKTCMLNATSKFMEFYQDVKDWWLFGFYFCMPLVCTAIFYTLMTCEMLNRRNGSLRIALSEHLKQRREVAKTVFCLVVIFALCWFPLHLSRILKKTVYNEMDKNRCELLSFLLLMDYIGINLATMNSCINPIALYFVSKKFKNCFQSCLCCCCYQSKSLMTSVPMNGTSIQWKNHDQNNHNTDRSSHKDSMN

COc1cc(N2CCC3(CCN(C)CC3)CC2)ccc1Nc1ncc(Cl)c(Nc2ccccc2P(C)(C)=O)n1 [WX-0593]
major metabolic enzyme (formation of M1, M2, M5) [1]: primarily metabolized by CYP3A4; also recorded: CYP3A4 is the major metabolic enzyme | IC50 [2]: 500 nM | anti-tumor effect ([3]; WX-0593 2.5, 5, 10 mg/kg, ceritinib 10/20 mg/kg, brigatinib 10 mg/kg): significant anti-tumor effects | body weight ([3]; all treatment arms): no significant decrease in weight | dose excreted in feces [4]: 85.84% | dose excreted in urine [4]: 9.36% | dose in cage rinses and washes [4]: 1.51% | mean radioactivity recovery rate ([4]; single oral [14C]WX-0593 8 mg/kg): 96.71%
